Broadly, the melting point is the temperature of the solid-liquid transition. By IC50 is commonly meant the concentration that inhibits the measured activity by half.

Data set [1] deals with T1, recombinant, human protein tyrosine phosphatase (PTP) 1B (hPTP1B) (Homo sapiens, UniProt P18031).
T1 construct: made in house
T1 sequence (P18031 1-435): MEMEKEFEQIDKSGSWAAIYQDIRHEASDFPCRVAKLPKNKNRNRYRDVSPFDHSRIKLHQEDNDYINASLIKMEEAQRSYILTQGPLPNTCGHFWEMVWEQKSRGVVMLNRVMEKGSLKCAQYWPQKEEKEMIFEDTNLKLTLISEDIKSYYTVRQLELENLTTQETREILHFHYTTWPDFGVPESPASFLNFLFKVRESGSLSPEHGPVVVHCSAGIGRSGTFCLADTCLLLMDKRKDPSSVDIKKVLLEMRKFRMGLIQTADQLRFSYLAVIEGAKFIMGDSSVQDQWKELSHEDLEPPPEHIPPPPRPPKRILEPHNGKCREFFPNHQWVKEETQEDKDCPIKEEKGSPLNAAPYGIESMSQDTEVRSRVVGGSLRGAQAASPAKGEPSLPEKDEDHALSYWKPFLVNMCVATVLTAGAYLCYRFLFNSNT
Description: Inhibition of tri-phosphorylated insulin receptor dodecaphosphopeptide dephosphorylation by hPTP1B. Format: biochemical. The settings on record: 50 μM IR triphosphopeptide substrate, 5 min preincubation and 5 min reaction at 37° C., malachite green-ammonium molybdate phosphate detection.

`Cc1cc(C)cc(-c2cc(C(=O)NCCCCCCCc3ccccc3)cc(-c3cc(C)cc(C)c3)c2OCCCC(=O)O)c1` [Example 148, 4-[3,5,3″,5″-Tetramethyl-5′-(7-phenyl-heptylcarbamoyl)-[1,1′:3′,1″]terphenyl-2′-yloxy]-butyric acid] came in with a melting point of 64 to 66 °C. Further, in data set [1], the IC50 was 249 nM.

Take `N#Cc1cccc(OCCCCCCCCNC(=O)c2cc(-c3cccc(Cl)c3)c(OCC(=O)O)c(-c3cccc(Cl)c3)c2)c1` [Example 89, {3,3″-Dichloro-5′-[8-(3-cyano-phenoxy)-octylcarbamoyl]-[1,1′;3′1″]terphenyl-2′-yloxy}acetic acid]: the melting point was > 61 °C (dec.). The IC50 in data set [1] was found to be 173 nM.

In turn, `Cc1cc(COCCCCCCNC(=O)c2cc(-c3ccc(F)c(Cl)c3)c(OCC(=O)O)c(-c3ccc(F)c(Cl)c3)c2)c(C)o1` [Example 26, {3,3″-Dichloro-5′-(6-(2,5-dimethyl-furan-3-ylmethoxy)-hexylcarbamoyl]-4-4″-difluoro-[1,1′;3′,1″]terphenyl-2′-yloxy}-acetic acid] registered a melting point of 90 to 91.2 °C. Also, the IC50 in data set [1] was determined as 207 nM.

For the compound `O=C(O)COc1c(-c2cccc(Cl)c2)cc(C(=O)NCC2(COCCCCc3ccccc3)CC2)cc1-c1cccc(Cl)c1` [Example 100, (3,3″-Dichloro-5′-{[1-(4-phenyl-butoxymethyl)-cyclopropylmethyl]-carbamoyl}-[1,1′;3′1″]terphenyl-2′-yloxy)acetic acid], the melting point was > 52 °C (dec.). Also, the IC50 in data set [1] came out at 389 nM.

On to `COc1cccc(-c2cccc(-c3cc(OC)cc(C(=O)N(C)CCCCCCCCc4ccccc4)c3)c2OCC(=O)O)c1` [Example 21, {3,3″-Dimethoxy-5″-[methyl-(8-phenyl-octyl)-carbamoyl]-[1,1′;3′,1″]terphenyl-2′-yloxy}-acetic acid], for which the melting point is 148.9 to 149.7 °C. For the same compound, the IC50 in data set [1] is 880 nM.

Regarding `O=C(O)COc1c(-c2cccc(C(F)(F)F)c2)cc(C(=O)NCCCCCCOCc2ccc(F)cc2F)cc1-c1cccc(C(F)(F)F)c1` [Example 19, {5′-[6-(2,4-Difluoro-benzyloxy)-hexylcarbamoyl]-3,3″-bis-trifluoromethyl-[1,1′;3′1″]terphenyl-2′yloxy}-acetic acid], the melting point was 149.9 to 150.6 °C. Besides, the IC50 in data set [1] stood at 728 nM.

Turning to `Cc1cccc(-c2cc(C(=O)NCCCCCCCc3ccccc3)cc(-c3cccc(C)c3)c2OCC(=O)O)c1` [Example 145, [3,3″-Dimethyl-5′-(7-phenyl-heptylcarbamoyl)-[1,1′:3′,1″]terphenyl-2′-yloxy]acetic acid], the melting point lay in the range of 58 to 62 °C. For the same compound, the 50% inhibitory concentration (IC50) in data set [1] came out at 1150 nM.

Regarding `CCCCCCCCCc1cc(-c2ccccc2)c(OCC(=O)O)c(-c2ccccc2)c1` [Example 170, (5′-Nonyl-[1,1′;3′,1″]terphenyl-2′-yloxy)acetic acid], the melting point was 63 to 65 °C. Moreover, in data set [1], the IC50 is 178 nM.

Consider `O=C(O)COc1c(-c2cccc(F)c2)cc(C(=O)NCCCCCCCCc2ccccc2)cc1-c1cccc(F)c1` [Example 83, [3,3″-Difluoro-5′-(8-phenyl-octylcarbamoyl)-[1,1′;3′,1″]terphenyl-2′-yloxy]acetic acid], for which the melting point was > 58 °C (dec.). The IC50 in data set [1] was determined as 536 nM.

With `CC(C)(COc1c(-c2cccc(C(F)(F)F)c2)cc(C(=O)NCCCCCCCc2ccccc2)cc1-c1cccc(C(F)(F)F)c1)C(=O)O` [Example 129, 2,2-Dimethyl-3-[5′-(7-phenyl-heptylcarbamoyl)-3,3″-bis-trifluoromethyl-[1,1′:3′,1″]terphenyl-2′-yloxy]-propionic acid], the melting point was 130 to 132 °C. Also, the IC50 in data set [1] was 162 nM.

The compound `CCCCCCCCCCCCNC(=O)c1cc(-c2ccc(OC)cc2)c(OCC(=O)O)c(-c2ccc(OC)cc2)c1` [Example 9, (5′-Dodecylcarbamoyl-4,4″-dimethoxy-[1,1′;3′,1″]terphenyl-2′-yloxy)-acetic acid] gave a melting point of 65 to 68 °C. For the same compound, the IC50 in data set [1] is 165 nM.

Turning to `Cc1ccc2c(c1)cc(C)n2CCCCCCCCNC(=O)c1cc(-c2cccc(Cl)c2)c(OCC(=O)O)c(-c2cccc(Cl)c2)c1` [Example 98, {3,3″-Dichloro-5′-[8-(2,5-dimethyl-indol-1-yl)-octylcarbamoyl]-[1,1′;3′1″]-terphenyl-2′-yloxy}acetic acid], the melting point is > 172 °C (dec.). For the same compound, the 50% inhibitory concentration (IC50) in data set [1] amounted to 132 nM.

On to `COc1ccc(-c2cc(C(=O)N(C)CCCCCCCCc3ccccc3)cc(-c3cccc(C(F)(F)F)c3)c2OCC(=O)O)cc1` [Example 81, {4″-Methoxy-5′-[methyl-(8-phenyl-octyl)-carbamoyl]-3-trifluoromethyl-[1,1′;3′1″]-terphenyl-2′-yloxy}acetic acid], for which the melting point is > 39 °C (dec.). The IC50 in data set [1] worked out at 330 nM.

With `Cc1cc(OCCCCCCCCNC(=O)c2cc(-c3cccc(Cl)c3)c(OCC(=O)O)c(-c3cccc(Cl)c3)c2)ccc1F` [Example 91, {3,3″-Dichloro-5′-[8-(4-fluoro-3-methyl-phenoxy)-octylcarbamoyl]-[1,1′;3′1″]terphenyl-2′-yloxy}acetic acid], the melting point was 138 to 140 °C. Also, the IC50 in data set [1] came to 313 nM.

As for `CCCCCCCCCCCCNC(=O)c1cc(Br)c(OCC(=O)O)c(-c2ccccc2F)c1` [Example 156, (3-Bromo-5-dodecylcarbamoyl-2′-fluoro-biphenyl-2-yloxy)acetic acid], the melting point lay within 128 to 138 °C. Moreover, the IC50 in data set [1] came out at 278 nM.

With `CCCCCCCCCCCCNC(=O)c1cc(-c2cc(Cl)cc(Cl)c2)c(OCC(=O)O)c(-c2cc(Cl)cc(Cl)c2)c1` [Example 159, (3,5,3″,5″-Tetrachloro-5′-dodecylcarbamoyl-[1,1′;3′,1″]terphenyl-2′-yloxy)acetic acid], the melting point fell in the range of 139 to 144 °C. Besides, the IC50 in data set [1] was determined as 44 nM.

As to `CN(CCCCCCCCc1ccccc1)C(=O)c1cc(-c2cccc(Cl)c2)c(OCC(=O)O)c(-c2cccc(Cl)c2)c1` [Example 82, {3,3″-Dichloro-5′-[methyl-(8-phenyl-octyl)-carbamoyl]-[1,1′;3′1″]terphenyl-2′-yloxy}acetic acid], the melting point is > 44 °C (dec.). Moreover, the IC50 in data set [1] is 179 nM.

Consider `COc1ccc(-c2cc(C(=O)NCCCCCCCCc3ccccc3)cc(-c3cccc(C(F)(F)F)c3)c2OCC(=O)O)cc1` [Example 158, [4″-Methoxy-5′-(8-phenyl-octylcarbamoyl)-3-trifluoromethyl-[1,1′;3′,1″]terphenyl-2′-yloxy]acetic acid], for which the melting point lay in the range of 139 to 144 °C. In addition, the IC50 in data set [1] is 246 nM.
